Measurements as given in ChEMBL document CHEMBL5053530, “Neopetrosidines A-D, pyridine alkaloids isolated from the marine sponge Neopetrosia chaliniformis and their cell cycle elongation activity” (Bioorg Med Chem, 2021).
Active and inactive are the calls of the source. No cut-off for these calls is given here.

Assays:
HeLa/Fucci2 [1] = assay: Cytotoxicity against human HeLa/Fucci2 cells assessed as reduction in cell growth measured after 3 days by MTT assay; format: functional, cell-based; settings: HeLa/Fucci2, 72 h
[2] = Effect on glycolysis in human HeLa/Fucci2 cells assessed as increase in lactate production per ug protein at 0.1 uM incubated for 24 hrs by LDH Assay (reference value: 19.6 +/- 6.2 nmol); format: functional
HeLa/Fucci2 [3] = assay: Antiproliferative activity against human HeLa/Fucci2 cells assessed as reduction in cell viability incubated for 48 hrs under glucose-limiting condition by LDH assay; format: functional, cell-based
[4] = Induction of cell cycle duration in human HeLa/Fucci2 cells assessed as increase in G1/S phase duration at 5 uM measured every 20 mins for 96 hrs by time-lapse imaging analysis (reference value: 4.8 +/- 0.3 hrs); format: functional
HeLa = assay: Induction of mitochondria membrane potential loss in human HeLa cells at 5 uM measured after 1 hr by JC1 dye based fluorescence microscopic analysis; format: functional, cell-based
HeLa/Fucci2 [5] = assay: Antiproliferative activity against human HeLa/Fucci2 cells reduction in cellular ATP production incubated for 4 hrs by CellTiter-Glo cell viability assay; format: functional, cell-based; settings: dose 1.3-5 µM
HeLa/Fucci2 [6] = assay: Induction of cell cycle duration in human HeLa/Fucci2 cells assessed as increase in G1 phase duration measured every 20 mins for 96 hrs by time-lapse imaging analysis; format: functional, cell-based; settings: dose 1.25-10 µM
[7] = Induction of cell cycle duration in human HeLa/Fucci2 cells assessed as increase in G1 phase duration at 5 uM measured every 20 mins for 96 hrs by time-lapse imaging analysis (reference value: 5 +/- 0.8 hrs); format: functional
[8] = Induction of cell cycle duration in human HeLa/Fucci2 cells assessed as increase in S/G2/M phase duration at 5 uM measured every 20 mins for 96 hrs by time-lapse imaging analysis (reference value: 7.1 +/- 0.7 hrs); format: functional
HeLa/Fucci2 [9] = assay: Induction of cell cycle duration in human HeLa/Fucci2 cells assessed as increase in G1/S phase duration measured every 20 mins for 96 hrs by time-lapse imaging analysis; format: functional, cell-based; settings: dose 1.25-10 µM
[10] = Effect on glycolysis in human HeLa/Fucci2 cells assessed as increase in lactate production per ug protein at 5 uM incubated for 24 hrs by LDH Assay (reference value: 19.6 +/- 6.2 nmol); format: functional
HeLa/Fucci2 [11] = assay: Induction of cell cycle duration in human HeLa/Fucci2 cells assessed as increase in S/G2/M phase duration measured every 20 mins for 96 hrs by time-lapse imaging analysis; format: functional, cell-based; settings: dose […]

C1=C\CCCCCCc2ccc[n+](c2)CCCCCC/C=C\CCCCCCc2ccc[n+](c2)CCCCCCCC/1
IC50 (HeLa/Fucci2 [1]): 2600 nM

C=C(C)[C@H]1Cc2c(ccc3c2O[C@@H]2COc4cc(OC)c(OC)cc4[C@@H]2C3=O)O1 [ROTENONE]
Activity [2]: 34.5 nmol

C1=C\CCCCCC[n+]2cccc(c2)CCCCCC/C=C\CCCCCC[n+]2cccc(c2)CCCCCC/1
IC50 (HeLa/Fucci2 [1]): 2400 nM

C1=C\CCCCCC[n+]2cccc(c2)CCCCCC/C=C\CCCCCC[n+]2cccc(c2)CCCCCCCC/1
IC50 (HeLa/Fucci2 [1]): 2600 nM

C1=C\CCCCCC[n+]2cccc(c2)CCCCCCCCCCCCCC[n+]2cccc(c2)CCCCCC/1.O=C[O-].O=C[O-]
Activity (HeLa/Fucci2 [3]): Active
Time [4]: 9.3 h
IC50 (HeLa/Fucci2 [1]): 1200 nM
Activity (HeLa): Active
Activity (HeLa/Fucci2 [5]): Dose-dependent effect
Activity (HeLa/Fucci2 [6]): Dose-dependent effect
Time [7]: 12 h
Time [8]: 14.7 h
Activity (HeLa/Fucci2 [9]): Dose-dependent effect
Activity [10]: 27.9 nmol
Activity (HeLa/Fucci2 [11]): Dose-dependent effect
